Assay results published in the OligoGym collection.
Bases are written 5' to 3'; sugars and linkages follow in the same order, as letters with counts (s phosphorothioate, o phosphodiester; PS: all linkages phosphorothioate). The collection does not say whether C is 5-methylated. l = locked nucleic acid (LNA); d = 2'-deoxy (DNA)

The sequences below were run against Tau (assay: rat primary cortical neurons, FLIPR, 25 uM ASO).
“GCAGGTTAAGTGATTAACCA (sugars l3 d14 l3, PS)” was tested, and the calcium oscillation score was 36.3 % of control. With ACCTCCTGGTTTATGA (sugars l3 d10 l3, PS) the calcium oscillation score was 32.2 % of control. In the case of TCCTTCTAAGTACAAT (sugars l4 d8 l4, PS), the calcium oscillation score is reported as 54.1 % of control. In the case of “CTGATCACAAACCCTGCTTG (sugars l3 d14 l3, PS)”, the calcium oscillation score is reported as 20.3 % of control. With TGGCTTTGGCGTTCTC (sugars l3 d10 l3, PS) the calcium oscillation score was 28.7 % of control. In the case of GCTTCCAGTCCCGTCT (sugars l3 d10 l3, PS), the calcium oscillation score is reported as 104 % of control. With GAAAGAGGGCAGCAGG (sugars l3 d10 l3, PS) the calcium oscillation score was 0 % of control. In the case of “TTCTTCCATCCTAAGTCA (sugars l3 d13 l2, PS)”, the calcium oscillation score is reported as 51.7 % of control. With “GATGGATGTTGCCTAATGAG (sugars l3 d14 l3, PS)” the calcium oscillation score was 0 % of control. With “CAAACCAACTCAACATTACC (sugars l4 d14 l2, PS)” the calcium oscillation score was 94.7 % of control. For CCTATGCCAATTATTT (sugars l4 d8 l4, PS), the calcium oscillation score was 68.2 % of control. For CTCTTAGCATCAGAGG (sugars l3 d10 l3, PS), the calcium oscillation score was 70.4 % of control. “CAGCCTACTTTATTCCCT (sugars l2 d14 l2, PS)” was tested, and the calcium oscillation score was 82.2 % of control. For “TCATTTACCAATTATCTTTA (sugars l4 d13 l3, PS)”, the calcium oscillation score was 48.8 % of control. With “CTCCAATTTTAAACTTAAA (sugars l4 d11 l4, PS)” the calcium oscillation score was 70.2 % of control. For “TCCACTTAGACACTCTT (sugars l2 d11 l4, PS)”, the calcium oscillation score was 50 % of control. CTGCCGGTGGAGGAGA (sugars l3 d10 l3, PS) was tested, and the calcium oscillation score was 0 % of control. “TCATAAATGACTATACTTAT (sugars l3 d14 l3, PS)” was tested, and the calcium oscillation score was 80.6 % of control. In the case of CATTTTACTAAAACGC (sugars l4 d8 l4, PS), the calcium oscillation score is reported as 91.6 % of control. “ACTTTATTTCCAAATTCACTT (sugars l5 d11 l5, PS)” was tested, and the calcium oscillation score was 121 % of control. With “AACTCTAAGTAGACCCTGGC (sugars l3 d14 l3, PS)” the calcium oscillation score was 14.3 % of control. With CTTCCAGTCCCGTCTT (sugars l3 d10 l3, PS) the calcium oscillation score was 0 % of control. In the case of “AGCCCATTTACAATTCA (sugars l2 d11 l4, PS)”, the calcium oscillation score is reported as 76.7 % of control. In the case of “CACCCATCAATTTGGAAAGA (sugars l3 d14 l3, PS)”, the calcium oscillation score is reported as 91.5 % of control. In the case of CCCTAAACCATGATCT (sugars l3 d10 l3, PS), the calcium oscillation score is reported as 89.7 % of control. For “AATCCCAGTTTCCCCCA (sugars l4 d11 l2, PS)”, the calcium oscillation score was 65.6 % of control. For CCTCTAGTTTTACCTA (sugars l2 d11 l3, PS), the calcium oscillation score was 58.8 % of control. With “CCAGCGTGATCTTCCATCAC (sugars l3 d14 l3, PS)” the calcium oscillation score was 112 % of control. “ACTAACTCTAAGTAGACCCT (sugars l3 d14 l3, PS)” was tested, and the calcium oscillation score was 40.3 % of control. In the case of “ATTTTACTACTCTCTTTTCT (sugars l3 d14 l3, PS)”, the calcium oscillation score is reported as 68 % of control. “CTTTATTCCCTTAACAATAT (sugars l3 d14 l3, PS)” was tested, and the calcium oscillation score was 74.6 % of control. With “CAATCCATTTATATTCTTTT (sugars l4 d12 l4, PS)” the calcium oscillation score was 63.2 % of control. For TTACACCCAAACCTAAA (sugars l4 d9 l4, PS), the calcium oscillation score was 92.3 % of control. TCAGTCCTAATCCTGT (sugars l3 d10 l3, PS) was tested, and the calcium oscillation score was 53.3 % of control. With TTTGTAGACTATTTGC (sugars l3 d10 l3, PS) the calcium oscillation score was 0 % of control. With “CCTGTCTCAAACACCTA (sugars l2 d12 l3, PS)” the calcium oscillation score was 60.6 % of control. In the case of “GTATCCAGCCATATTTCAAC (sugars l3 d14 l3, PS)”, the calcium oscillation score is reported as 36.7 % of control. TTTGATAAAACATCCC (sugars l4 d8 l4, PS) was tested, and the calcium oscillation score was 89 % of control. “GCCTTACTTTCTACTCA (sugars l2 d13 l2, PS)” was tested, and the calcium oscillation score was 70.7 % of control. With “CCAAATTCCTCATAATCCA (sugars l2 d15 l2, PS)” the calcium oscillation score was 75 % of control. In the case of TGATGGATGTTGCCTA (sugars l3 d10 l3, PS), the calcium oscillation score is reported as 29.6 % of control. “ACCAACTTTCATCTACTTTT (sugars l3 d15 l2, PS)” was tested, and the calcium oscillation score was 90.5 % of control. In the case of “CCACACTTGGAGGTCACCTT (sugars l3 d14 l3, PS)”, the calcium oscillation score is reported as 4.52 % of control. “GCTCCAACCACACCTTT (sugars l2 d11 l4, PS)” was tested, and the calcium oscillation score was 87.2 % of control. “CTTACACACCACACACACTC (sugars l1 d17 l2, PS)” was tested, and the calcium oscillation score was 88.5 % of control. For “TAACTCAAATCAATTCTCAT (sugars l4 d12 l4, PS)”, the calcium oscillation score was 63.9 % of control. In the case of “ACTTTATTTCCAAATTCACTTTTAC (sugars ldllddddddddddddddddllldl, PS)”, the calcium oscillation score is reported as 76.7 % of control. AGCTACTCACAACCCA (sugars l2 d11 l3, PS) was tested, and the calcium oscillation score was 65.6 % of control. In the case of “ACCCATCTTAATTCATTTAA (sugars l3 d14 l3, PS)”, the calcium oscillation score is reported as 96.1 % of control. With TCTACCATGTCGATGC (sugars l3 d10 l3, PS) the calcium oscillation score was 51.8 % of control. In the case of ATCCATTAATTTAGCC (sugars l3 d10 l3, PS), the calcium oscillation score is reported as 76.7 % of control. CGTGGGTGATATTGTC (sugars l3 d10 l3, PS) was tested, and the calcium oscillation score was 0 % of control. “ACTTTATTTCCAAATTCACTTTTAC (sugars llddldddddddddddddddllddl, PS)” was tested, and the calcium oscillation score was 17.7 % of control. For CCCAGCGTGATCTT (sugars l3 d8 l3, PS), the calcium oscillation score was 46 % of control. “CTTTATTTCCAAATTCACTT (sugars l2 d2 l1 d11 l4, PS)” was tested, and the calcium oscillation score was 74.5 % of control. In the case of “TATTTCCAAATTCACTTTTA (sugars lllddldddddddddlldll, PS)”, the calcium oscillation score is reported as 127 % of control. In the case of “CACAAACCAACTCAACATTA (sugars l4 d13 l3, PS)”, the calcium oscillation score is reported as 82.7 % of control. For CATGATCTTAGGCT (sugars l3 d8 l3, PS), the calcium oscillation score was 25.3 % of control. In the case of CACTCTGATACTATTAT (sugars l4 d9 l4, PS), the calcium oscillation score is reported as 69 % of control. CTCACCCCAAACAAGA (sugars l3 d10 l3, PS) was tested, and the calcium oscillation score was 65.6 % of control. For “CATTTCTGGAAGGTTCTTTC (sugars l3 d14 l3, PS)”, the calcium oscillation score was 23.9 % of control. For CAGCTATACTATTTCA (sugars l4 d10 l2, PS), the calcium oscillation score was 60.2 % of control. In the case of “CTTTTCCCAATTATTAACC (sugars l3 d14 l2, PS)”, the calcium oscillation score is reported as 54.5 % of control. With “AGATATTCATTCCCTCA (sugars l3 d12 l2, PS)” the calcium oscillation score was 53 % of control. ACCCTTAGACATAACA (sugars l4 d10 l2, PS) was tested, and the calcium oscillation score was 75.1 % of control. With “CATCTCTCTAGACATCTC (sugars l2 d13 l3, PS)” the calcium oscillation score was 64.6 % of control. “TCTTCTAATATCCTTGC (sugars l3 d11 l3, PS)” was tested, and the calcium oscillation score was 55.7 % of control. CCTTAATTTCACCC (sugars l3 d8 l3, PS) was tested, and the calcium oscillation score was 66.7 % of control. With CCTCTTCCACTACAAG (sugars l2 d12 l2, PS) the calcium oscillation score was 57.8 % of control. In the case of AACTAAATTTACCTCA (sugars l4 d8 l4, PS), the calcium oscillation score is reported as 88.1 % of control. In the case of “AAACATCTAAACACCTCAAT (sugars l4 d12 l4, PS)”, the calcium oscillation score is reported as 78.9 % of control. For “CTAGTTATACAGTTGGCCCT (sugars l3 d14 l3, PS)”, the calcium oscillation score was 33.3 % of control. In the case of GTCAATTTAAATGGA (sugars l3 d9 l3, PS), the calcium oscillation score is reported as 66.7 % of control. “CCCACATTTGCAAACCA (sugars l2 d13 l2, PS)” was tested, and the calcium oscillation score was 53.9 % of control. In the case of “CAGTTACCATCATACAT (sugars l3 d10 l4, PS)”, the calcium oscillation score is reported as 89 % of control. With “TATTTCCAAATTCACTTTTA (sugars lldlldddddddddllddll, PS)” the calcium oscillation score was 114 % of control. For “CAACTCAAACACTAACTT (sugars l4 d10 l4, PS)”, the calcium oscillation score was 64.5 % of control. With CTGGCCACCTCCTGGT (sugars l3 d10 l3, PS) the calcium oscillation score was 16.1 % of control. For TATTTATAGGTGCATA (sugars l3 d9 l4, PS), the calcium oscillation score was 0 % of control. In the case of CGTTCTCGCGGAAGGT (sugars l3 d10 l3, PS), the calcium oscillation score is reported as 13 % of control. “ACCAGCTAGTGGTGCCACCT (sugars l3 d14 l3, PS)” was tested, and the calcium oscillation score was 20.2 % of control. With TTAATTTCACCCTC (sugars l3 d8 l3, PS) the calcium oscillation score was 44.1 % of control. “TTACTTTCTACTCAATTCCA (sugars l3 d15 l2, PS)” was tested, and the calcium oscillation score was 60.6 % of control. “TAATAGATCTTTCCCCT (sugars l2 d12 l3, PS)” was tested, and the calcium oscillation score was 103 % of control. With “GCACCCACTTTCCTAATT (sugars l2 d14 l2, PS)” the calcium oscillation score was 51.6 % of control. “CCAGGGAGGCAGACACCTCG (sugars l3 d14 l3, PS)” was tested, and the calcium oscillation score was 10.2 % of control. For ACTAATATTAACACTAT (sugars l4 d9 l4, PS), the calcium oscillation score was 79.5 % of control. With TGTACACGATCTCCGC (sugars l3 d10 l3, PS) the calcium oscillation score was 145 % of control. For CCCCAGACCATCAATT (sugars l2 d12 l2, PS), the calcium oscillation score was 57.7 % of control. “CCAGATTCCCCAACTCAC (sugars l3 d13 l2, PS)” was tested, and the calcium oscillation score was 89 % of control. “CTTTATTTCCAAATTCACTT (sugars l1 d17 l2, PS)” was tested, and the calcium oscillation score was 179 % of control. With “CCTAATAAAAACAATACTA (sugars l4 d11 l4, PS)” the calcium oscillation score was 62.3 % of control. For “AACGCACCAGGAACCTTCCA (sugars l3 d14 l3, PS)”, the calcium oscillation score was 51.4 % of control. With “TATTAATTCATAAATGACTA (sugars l3 d14 l3, PS)” the calcium oscillation score was 40.3 % of control. With “TTATTAATTCATAAATGACT (sugars l3 d14 l3, PS)” the calcium oscillation score was 42.3 % of control. For “GGGAGATTCTTTCAGGCCAG (sugars l3 d14 l3, PS)”, the calcium oscillation score was 48.1 % of control. In the case of “ACCCATCAATTTGGAAAGAT (sugars l3 d14 l3, PS)”, the calcium oscillation score is reported as 72.6 % of control. With “AGAGACCACATTATCATCCA (sugars l3 d14 l3, PS)” the calcium oscillation score was 26.2 % of control. TACAATCCACTCCTCC (sugars l2 d10 l4, PS) was tested, and the calcium oscillation score was 56.4 % of control. In the case of “TTAACCCTTGATCATATTTG (sugars l3 d14 l3, PS)”, the calcium oscillation score is reported as 14.3 % of control. For “TCCCTAATCCCCAAAGA (sugars l2 d13 l2, PS)”, the calcium oscillation score was 53.9 % of control. In the case of “GGGAGGCAGACACCTCGTCA (sugars l3 d14 l3, PS)”, the calcium oscillation score is reported as 102 % of control. TTAGCCCTAAAGTCCC (sugars l3 d10 l3, PS) was tested, and the calcium oscillation score was 28.6 % of control. With ATGATGGATGTTGCCT (sugars l3 d10 l3, PS) the calcium oscillation score was 0 % of control. In the case of GCGACTTGTACACGAT (sugars l3 d10 l3, PS), the calcium oscillation score is reported as 32.2 % of control. TTCCTGGACCACCTTA (sugars l3 d10 l3, PS) was tested, and the calcium oscillation score was 59.3 % of control. For CAGCCACTGTTGCCAC (sugars l2 d12 l2, PS), the calcium oscillation score was 51.2 % of control. With “ATCAATTCTCATTTCAACCT (sugars l3 d15 l2, PS)” the calcium oscillation score was 70.7 % of control.
